Assay results reported in patent publication US20250163119A1, “COMPOUNDS FOR THE TREATMENT OF DIABETES OR OBESITY” (Eli Lilly and Company, priority 2023, published 2025).
Several values for one entry are separate records, joined by “and”; a condition that tells them apart may be missing. Equal entries are not always repeated. *1 amine or outer side, *2 acyl side, *3 side chain or, on linkers, in order; H or OH if unused. [ ]: non-standard residue; d: D form. The star is where a group is joined. C20 diacid = O=C(O)CCCCCCCCCCCCCCCCCCC(=O)*; γGlu = O=C(O)[C@H](CCC(=O)[*:2])N[*:1]; εLys = N[C@@H](CCCCN[*:1])C(=O)[*:2]; αMeL = CC(C)C[C@](C)(N)C(=O)O; AEEA = NCCOCCOCC(=O)O; Aib = CC(C)(N)C(=O)O

How the values were obtained:
[1] = tested on: MHC-II presented peptides on human dendritic cells; test: MAPPS assay (MHC-Associated Peptide Proteomics); assay type: cell-based
Outline: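 CD14+ monocytes from healthy donor PBMCs were differentiated to immature DCs with IL-4/GM-CSF, exposed to test molecules on day 4 and matured with LPS on day 5. On day 6, MHC-II complexes were immunoprecipitated and eluted peptides identified by mass spectrometry; value is percentage of donors presenting peptides from each region.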

[2] = Pharmacokinetics in CD-1 mice, single 100 nmol/kg subcutaneous dose; assay type: in vivo; conditions: mouse, plasma, sc, male CD-1 mice, mean
Protocol: Plasma concentrations of compounds were determined by LC/MS methods. For each assay, the compound and an internal standard (IS), were extracted from 100% mouse, rat, pig, or monkey plasma (70 μL) using Isopropanol-Methanol. Two distinct layers were formed upon centrifugation with the compound and the IS located in the supernatant layer. An aliquot of the supernatant (150 μL) was transferred to a Waters Sirocco Protein Precipitation Plate. The supernatant was eluted using a positive pressure manifold. The supernatant was mixed with 100-2 Water-Formic acid (400 μL) in a pretreated Sep-Pak tC18 SPE plate and eluted to waste. The peptide and IS were eluted with Acetonitrile-Formic acid (100 μL) in 2 steps (50 μL each step). The elution (40 μL) from SPE plate was mixed with diluent solution (1.875 μL 5× invitrosol and 3.125 μL 1% formic acid in water, 80 μL). A final sample (10 μl) was loaded onto a Xselect CSH C18 IS column (3.5 μm 2.1×20 mm). The column effluent was directed into a Thermo Fisher Scientific Orbitrap (Exploris 240) mass spectrometer for detection and quantitation.
Male CD-1 mice were administered a single subcutaneous dose (100 nmol/kg) of compound in 40 mM Tris-HCl 5% D-mannitol (pH 8) at a volume of 5 mL/kg. Blood was collected at 6, 24, 48, 96, 168, 240, 288, and 336 hours postdose for pharmacokinetic characterization.

[3] = Pharmacokinetics in Yucatan mini-pigs, single subcutaneous or intravenous dose; assay type: in vivo; conditions: for Tmax: read-out: Tmax
Outline: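 Male mini-pigs received one SC or IV dose (19 or 99 nmol/kg) in 40 mM Tris-HCl 5% D-mannitol, pH 8. Blood sampled 0.083 (IV only) to 504 h postdose. Plasma levels measured by LC/MS after extraction and SPE, Orbitrap detection.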

[4] = Pharmacokinetics in Sprague Dawley rats, single subcutaneous or intravenous dose (incl. 10, 30, 100 nmol/kg dose response); assay type: in vivo
[5] = male Yucatan pigs, single subcutaneous dose 19 nmol/kg, individual animal
[6] = male, Yucatan mini-pig, minipig, plasma, iv, 19 nmol/kg, single intravenous dose 19 nmol/kg, individual animal
[7] = male, Yucatan mini-pig, minipig, plasma, iv, 19 nmol/kg, single intravenous dose 19 nmol/kg, mean
[8] = male, Yucatan mini-pig, minipig, plasma, sc, 19 nmol/kg, single subcutaneous dose 19 nmol/kg, Mean
[9] = male, Yucatan mini-pig, minipig, plasma, sc, 19 nmol/kg, single subcutaneous dose 19 nmol/kg, individual animal
[10] = single intravenous dose 19 nmol/kg, male Yucatan pigs, individual animal
[11] = dose response, single subcutaneous dose 10 nmol/kg, male Sprague Dawley rats, individual animal
[12] = dose response, single subcutaneous dose 30 nmol/kg, male Sprague Dawley rats, individual animal
[13] = dose response, single subcutaneous dose 100 nmol/kg, male Sprague Dawley rats, individual animal
[14] = male Sprague Dawley rats, single intravenous dose 190 nmol/kg, individual animal
[15] = male, Sprague Dawley, rat, plasma, iv, 190 nmol/kg, single intravenous dose 190 nmol/kg, Mean
[16] = male, Sprague Dawley, rat, plasma, iv, 190 nmol/kg, single intravenous dose 190 nmol/kg, individual animal
[17] = single subcutaneous dose 190 nmol/kg, male Sprague Dawley rats, individual animal

## {C20 diacid-εLys-AEEA-γGlu}-GSPSIVTS[αMeL]DVPT[Aib][αMeL]LQKILEQERAEKARQQATEAAEILAQV-NH2 [SEQ ID NO: 25]
[1]; donors displaying MHC-II peptides / donors tested
  MAPPS Assay >10 donors with diverse MHC: 0/10
[1]; human dendritic cells from normal donors
  peptides displayed on MHC-II complexes: no peptides displayed on MHC-II complexes
[1]; in the MAPPs assay and/or the T cell proliferation assay
  immunogenicity compared with SEQ ID NO:54: substantial improvements in immunogenicity over a compound comprising SEQ ID NO:54
[1]; percentage of donors displaying MHC-II peptides
  MAPPS Assay >10 donors with diverse MHC: 0%
[2]
  AUC0-inf: 25 µM·h
  CL/F: 0.0668 mL/min/kg
  Cmax: 366 nM
  Tmax: 24 h
  half-life: 32.5 h
[3]; Yucatan mini-pig, minipig, plasma, sc, male Yucatan pigs, single subcutaneous dose 19 nmol/kg, Mean, read-out: AUC0-inf
  AUC0-inf: 27.6 µM·h
[3]; Yucatan mini-pig, minipig, plasma, sc, male Yucatan pigs, single subcutaneous dose 19 nmol/kg, Mean, read-out: Cmax
  Cmax: 170 nM
[3]; [5]
  AUC0-inf: 28.3 µM·h and 26.8 µM·h
  CL/F: 0.012 mL/min/kg
  Cmax: 159 nM and 181 nM
  T1/2: 70.4 h
[3]; [6]
  clearance: 0.00755 mL/min/kg
  half-life: 106 h
[3]; [7]
  clearance: 0.00803 mL/min/kg
  half-life: 96.4 h
[3]; [8]
  half-life: 75.6 h
  Tmax: 24 h
[3]; male, Yucatan mini-pig, minipig, plasma, sc, 19 nmol/kg, single subcutaneous dose 19 nmol/kg, Mean, read-out: CL/F (converted)
  CL/F: 0.0116 mL/min/kg
[3]; [9]
  half-life: 80.8 h
  Tmax: 24 h
[3]; male, Yucatan mini-pig, minipig, plasma, sc, 19 nmol/kg, single subcutaneous dose 19 nmol/kg, individual animal, read-out: CL/F (converted)
  CL/F: 0.0114 mL/min/kg
[3]; minipig, plasma, single intravenous dose 19 nmol/kg, male Yucatan pigs, mean, read-out: AUC0-inf
  AUC0-inf: 39.6 µM·h
[3]; minipig, plasma, single intravenous dose 19 nmol/kg, male Yucatan pigs, mean, read-out: C0
  C0: 534 nM
[3]; [10]
  AUC0-inf: 41.9 µM·h and 37.2 µM·h
  C0: 522 nM and 545 nM
  CL: 0.0085 mL/min/kg
  T1/2: 86.8 h
[4]; [11]
  AUC0-inf: 1.05 µM·h and 0.972 µM·h and 1.11 µM·h
  CL/F: 0.175 mL/min/kg and 0.152 mL/min/kg
  Cmax: 20.8 nM and 21.9 nM and 26.8 nM
  T1/2: 18.6 h and 31.5 h
  Tmax: 6 h
[4]; [12]
  AUC0-inf: 2.64 µM·h and 2.91 µM·h and 2.96 µM·h
  CL/F: 0.173 mL/min/kg and 0.17 mL/min/kg
  Cmax: 55.0 nM and 68.0 nM and 59.1 nM
  T1/2: 19.6 h and 20.8 h
  Tmax: 6 h
[4]; [13]
  AUC0-inf: 12.5 µM·h and 14 µM·h and 13.4 µM·h
  CL/F: 0.119 mL/min/kg and 0.124 mL/min/kg
  Cmax: 239 nM and 316 nM and 328 nM
  T1/2: 17.4 h and 15.7 h
[4]; [14]
  AUC0-inf: 41.3 µM·h and 46.9 µM·h and 61.8 µM·h
  C0: 1610 nM and 3540 nM and 3610 nM
  CL: 0.0673 mL/min/kg and 0.0512 mL/min/kg
  T1/2: 16.9 h and 18.2 h
[4]; [15]
  clearance: 0.065 mL/min/kg
  half-life: 17.5 h
[4]; [16]
  clearance: 0.0765 mL/min/kg
  half-life: 17.4 h
[4]; male, Sprague Dawley, rat, plasma, sc, 10 nmol/kg, dose response, single subcutaneous dose 10 nmol/kg, individual animal
  half-life: 19.9 h
[4]; male, Sprague Dawley, rat, plasma, sc, 10 nmol/kg, dose response, single subcutaneous dose 10 nmol/kg, individual animal, read-out: CL/F (converted)
  CL/F: 0.162 mL/min/kg
[4]; male, Sprague Dawley, rat, plasma, sc, 10 nmol/kg, dose response, single subcutaneous dose 10 nmol/kg, mean
  half-life: 23.3 h
[4]; male, Sprague Dawley, rat, plasma, sc, 10 nmol/kg, dose response, single subcutaneous dose 10 nmol/kg, mean, read-out: CL/F (converted)
  CL/F: 0.163 mL/min/kg
[4]; male, Sprague Dawley, rat, plasma, sc, 10 nmol/kg, dose response, single subcutaneous dose 10 nmol/kg, mean, read-out: Tmax
  Tmax: 18 h
[4]; male, Sprague Dawley, rat, plasma, sc, 30 nmol/kg, dose response, single subcutaneous dose 30 nmol/kg, individual animal
  half-life: 19.2 h
[4]; male, Sprague Dawley, rat, plasma, sc, 30 nmol/kg, dose response, single subcutaneous dose 30 nmol/kg, individual animal, read-out: CL/F (converted)
  CL/F: 0.19 mL/min/kg
[4]; male, Sprague Dawley, rat, plasma, sc, 30 nmol/kg, dose response, single subcutaneous dose 30 nmol/kg, mean
  half-life: 19.9 h
[4]; male, Sprague Dawley, rat, plasma, sc, 30 nmol/kg, dose response, single subcutaneous dose 30 nmol/kg, mean, read-out: CL/F (converted)
  CL/F: 0.178 mL/min/kg
[4]; male, Sprague Dawley, rat, plasma, sc, 30 nmol/kg, dose response, single subcutaneous dose 30 nmol/kg, mean, read-out: Tmax
  Tmax: 18 h
[4]; male, Sprague Dawley, rat, plasma, sc, 100 nmol/kg, dose response, single subcutaneous dose 100 nmol/kg, individual animal
  half-life: 16 h
[4]; male, Sprague Dawley, rat, plasma, sc, 100 nmol/kg, dose response, single subcutaneous dose 100 nmol/kg, individual animal, read-out: CL/F (converted)
  CL/F: 0.133 mL/min/kg
[4]; male, Sprague Dawley, rat, plasma, sc, 100 nmol/kg, dose response, single subcutaneous dose 100 nmol/kg, individual animal, read-out: Tmax
  Tmax: 24 h
[4]; male, Sprague Dawley, rat, plasma, sc, 100 nmol/kg, dose response, single subcutaneous dose 100 nmol/kg, mean
  half-life: 16.4 h
[4]; male, Sprague Dawley, rat, plasma, sc, 100 nmol/kg, dose response, single subcutaneous dose 100 nmol/kg, mean, read-out: CL/F (converted)
  CL/F: 0.126 mL/min/kg
[4]; male, Sprague Dawley, rat, plasma, sc, 100 nmol/kg, dose response, single subcutaneous dose 100 nmol/kg, mean, read-out: Tmax
  Tmax: 24 h
[4]; male, Sprague Dawley, rat, plasma, sc, 190 nmol/kg, single subcutaneous dose 190 nmol/kg, individual animal
  half-life: 14.8 h
[4]; male, Sprague Dawley, rat, plasma, sc, 190 nmol/kg, single subcutaneous dose 190 nmol/kg, individual animal, read-out: CL/F (converted)
  CL/F: 0.136 mL/min/kg
[4]; male, Sprague Dawley, rat, plasma, sc, 190 nmol/kg, single subcutaneous dose 190 nmol/kg, individual animal, read-out: Tmax
  Tmax: 24 h
[4]; male, Sprague Dawley, rat, plasma, sc, 190 nmol/kg, single subcutaneous dose 190 nmol/kg, mean
  half-life: 14.4 h
[4]; male, Sprague Dawley, rat, plasma, sc, 190 nmol/kg, single subcutaneous dose 190 nmol/kg, mean, read-out: CL/F (converted)
  CL/F: 0.137 mL/min/kg
[4]; male, Sprague Dawley, rat, plasma, sc, 190 nmol/kg, single subcutaneous dose 190 nmol/kg, mean, read-out: Tmax
  Tmax: 24 h
[4]; rat, plasma, sc, dose response, single subcutaneous dose 10 nmol/kg, male Sprague Dawley rats, mean, read-out: AUC0-inf
  AUC0-inf: 1.04 µM·h
[4]; rat, plasma, sc, dose response, single subcutaneous dose 10 nmol/kg, male Sprague Dawley rats, mean, read-out: Cmax
  Cmax: 23.2 nM
[4]; rat, plasma, sc, dose response, single subcutaneous dose 30 nmol/kg, male Sprague Dawley rats, mean, read-out: AUC0-inf
  AUC0-inf: 2.84 µM·h
[4]; rat, plasma, sc, dose response, single subcutaneous dose 30 nmol/kg, male Sprague Dawley rats, mean, read-out: Cmax
  Cmax: 60.7 nM
[4]; rat, plasma, sc, dose response, single subcutaneous dose 100 nmol/kg, male Sprague Dawley rats, mean, read-out: AUC0-inf
  AUC0-inf: 13.3 µM·h
[4]; rat, plasma, sc, dose response, single subcutaneous dose 100 nmol/kg, male Sprague Dawley rats, mean, read-out: Cmax
  Cmax: 294 nM
[4]; rat, plasma, sc, single subcutaneous dose 190 nmol/kg, male Sprague Dawley rats, mean, read-out: AUC0-inf
  AUC0-inf: 23.2 µM·h
[4]; rat, plasma, sc, single subcutaneous dose 190 nmol/kg, male Sprague Dawley rats, mean, read-out: Cmax
  Cmax: 508 nM
[4]; rat, plasma, male Sprague Dawley rats, single intravenous dose 190 nmol/kg, Mean, read-out: AUC0-inf
  AUC0-inf: 50 µM·h
[4]; rat, plasma, male Sprague Dawley rats, single intravenous dose 190 nmol/kg, Mean, read-out: C0
  C0: 2920 nM
[4]; [17]
  AUC0-inf: 23.4 µM·h and 21.6 µM·h and 24.7 µM·h
  CL/F: 0.147 mL/min/kg and 0.128 mL/min/kg
  Cmax: 466 nM and 475 nM and 582 nM
  T1/2: 13.9 h and 14.5 h
